Consider 15 compounds from patent US20180057505A1, “BICYCLIC HETEROARYL COMPOUNDS USEFUL AS INHIBITORS OF THE PAR-2 SIGNALING PATHWAY” (VERTEX PHARMACEUTICALS INCORPORATED, priority 2015, published 2018).

Structures are written as SMILES.

Common to all, as to type: cell-based
For test [1], the system named is Thrombin-stimulated Ca2+ response in HT-29 cells. The experiment in a line: Ca FLIPR TETRA assay, ANTAGONIST mode, activator 1 U/mL Thrombin. The settings on record: Homo sapiens; HT-29 cells, activator 1 U/mL Thrombin. The method, boiled down:
(§1)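 HT-29 cells in 1% FBS/McCoy's overnight, loaded with FLIPR Calcium 5 dye (45 min 37 °C, 15 min r.t.); compounds added and read for intrinsic Ca2+ activation, then after 30 min r.t. stimulated with fixed activator: 8 μM SLIGKV, 0.6 μM UTP, 1 U/mL thrombin or 3.1 U/mL trypsin (final).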

Test [2] addresses T1, PAR2 (HT-29 cells) (Homo sapiens, UniProt P55085).
T1 construct: host or cells: HT-29
T1 sequence (P55085 26-397): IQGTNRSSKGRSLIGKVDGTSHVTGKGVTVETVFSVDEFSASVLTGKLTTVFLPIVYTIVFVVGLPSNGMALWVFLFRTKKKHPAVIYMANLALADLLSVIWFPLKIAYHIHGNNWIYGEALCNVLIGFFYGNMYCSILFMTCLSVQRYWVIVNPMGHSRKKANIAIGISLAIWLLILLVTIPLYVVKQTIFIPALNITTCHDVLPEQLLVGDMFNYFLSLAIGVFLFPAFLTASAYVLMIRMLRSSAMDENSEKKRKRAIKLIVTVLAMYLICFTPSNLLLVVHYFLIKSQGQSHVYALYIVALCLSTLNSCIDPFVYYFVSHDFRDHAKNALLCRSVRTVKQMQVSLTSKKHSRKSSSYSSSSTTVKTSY
As to the kind of experiment: Ca FLIPR TETRA assay, ANTAGONIST mode, activator 3.1 U/mL trypsin. The following applies: HT-29 cells; activator 3.1 U/mL trypsin; Method A: maximal concentration of antagonist 0.1, 1 or 2 μM. The method, boiled down:
as §1

Test [3] has as its system UTP-stimulated Ca2+ response in HT-29 cells. As to the kind of experiment: Ca FLIPR TETRA assay, ANTAGONIST mode, activator 0.6 μM UTP. The settings on record: Homo sapiens; HT-29 cells, activator 0.6 μM UTP. The method, boiled down: as §1
Test [4] has as its target T1, PAR2 (HT-29 cells). As to the kind of experiment: Ca FLIPR TETRA assay, ANTAGONIST mode, activator 8 μM SLIGKV. The following applies: HT-29 cells; activator 8 μM SLIGKV; Method A: maximal concentration of antagonist 0.1, 1 or 2 μM. The method, boiled down:
as §1

As a reminder, the IC50 is the concentration that inhibits the measured activity by half. `Cn1cnnc1N1CCN(C(=O)c2cc3nc(-c4ccc(Cl)cc4)cc(C(C)(C)C)c3o2)C(C)(C)C1` [Example I-505]: the IC50 in test [1] was over 2000 nM; in test [2], 9.6 nM; in test [3], over 2000 nM; in test [4], 14 nM.

For the compound `CC(C)(C)c1cc(-c2ccc(Cl)c(F)c2)nc2cc(C(=O)N3CCN(C(=O)[C@@H]4CCCC[C@H]4C(=O)O)CC3(C)C)oc12` [Example I-506], the IC50 in test [1] was over 2000 nM; in test [2] it was 21 nM; in test [3], over 2000 nM; in test [4], 23 nM.

Consider `CC(C)(C)c1cc(-c2ccc(Cl)c(F)c2)nc2cc(C(=O)N3CCN(C(=O)NS(=O)(=O)c4ccccc4)CC3(C)C)oc12` [Example I-507], for which the IC50 in test [1] was over 2000 nM; in test [2], 0.5 nM; in test [3] it was over 2000 nM; in test [4] it was 0.6 nM.

As for `CC(C)(C)c1cc(-c2ccc(Cl)c(F)c2)nc2cc(C(=O)N3CCN(S(C)(=O)=O)CC3(C)C)oc12` [Example I-508], the IC50 was over 2000 nM in test [1], 10 nM in test [2], over 2000 nM in test [3] and 8.1 nM in test [4].

As to `CC1(C)CCC(c2cc(C(C)(C)C)c3oc(C(=O)N4CCN(C(=O)[C@H]5CC[C@@](C)(C(=O)OCOP(=O)(O)O)CC5)CC4(C)C)cc3n2)CC1` [Example I-509], the IC50 was over 2000 nM in test [1], 0.5 nM in test [2], over 2000 nM in test [3] and 0.2 nM in test [4].

In the case of `CC(C)(C)c1cc(-c2ccc(Cl)c(F)c2)nc2cc(C(=O)N3CCN(c4ccc(C(=O)O)c(N)n4)CC3(C)C)oc12` [Example I-510], the IC50 was over 2000 nM in test [1], 0.8 nM in test [2], over 2000 nM in test [3] and 0.3 nM in test [4].

As to `CC(C)(C)c1cc(-c2ccc(Cl)cc2)nc2cc(C(=O)N3CCN(C(=O)[C@@H]4CCCC[C@H]4C(=O)O)CC3(C)C)oc12` [Example I-511], the IC50 is over 2000 nM in test [1], 49.5 nM in test [2], over 2000 nM in test [3] and 43 nM in test [4].

As for `CC(C)(C)c1cc(-c2ccc(Cl)c(F)c2)nc2cc(C(=O)N3CCN(C(=O)[C@@H]4CC[C@H](C(=O)O)C4)CC3(C)C)oc12` [Example I-512], the IC50 in test [1] is over 2000 nM; in test [2], 18 nM; in test [3] it was over 2000 nM; in test [4], 19 nM.

With `CC(C)(C)c1cc(-c2ccc(Cl)c(F)c2)nc2cc(C(=O)N3CCN(c4cc(C(F)(F)F)cnc4C(=O)O)CC3(C)C)oc12` [Example I-515], the IC50 in test [1] was over 2000 nM; in test [2], 21 nM; in test [3] it was over 2000 nM; in test [4], 16 nM.

With `CC(C)(C)c1cc(-c2ccc(Cl)c(F)c2)nc2cc(C(=O)N3CCN(c4nc(-c5ccccc5)ccc4C(=O)O)CC3(C)C)oc12` [Example I-516], the concentration for half-maximal inhibition (IC50) was over 2000 nM in test [1], 2.7 nM in test [2], over 2000 nM in test [3] and 1.8 nM in test [4].

`CC(C)(C)c1cc(-c2ccc(Cl)c(F)c2)nc2cc(C(=O)N3CCN(c4cc(C(=O)O)c(F)cn4)CC3(C)C)oc12` [Example I-517]: the IC50 in test [1] was over 2000 nM; in test [2], 2.3 nM; in test [3] it was over 2000 nM; in test [4], 1.4 nM.

Regarding `CC(C)(C)c1cc(-c2ccc(Cl)c(F)c2)nc2cc(C(=O)N3CCN(c4ncc(F)cc4C(=O)O)CC3(C)C)oc12` [Example I-518], the IC50 in test [1] was over 2000 nM; in test [2] it was 17 nM; in test [3] it was over 2000 nM; in test [4], 10 nM.

Take `CC(C)(C)c1cc(-c2ccc(Cl)c(F)c2)nc2cc(C(=O)N3CCN(c4ncncc4C(=O)O)CC3(C)C)oc12` [Example I-519]: the IC50 is over 2000 nM in test [1], 26 nM in test [2], over 2000 nM in test [3] and 14 nM in test [4].

Regarding `Cc1cnc(N2CCN(C(=O)c3cc4nc(-c5ccc(Cl)c(F)c5)cc(C(C)(C)C)c4o3)C(C)(C)C2)nc1C(=O)O` [Example I-520], the concentration for half-maximal inhibition (IC50) was over 2000 nM in test [1], 0.4 nM in test [2], over 2000 nM in test [3] and 0.3 nM in test [4].

For the compound `Cc1cnc(N2CCN(C(=O)c3cc4nc(-c5ccc(Cl)cc5)cc(C(C)(C)C)c4o3)C(C)(C)C2)nc1C(=O)O` [Example I-521], the IC50 is over 2000 nM in test [1], 1.2 nM in test [2], over 2000 nM in test [3] and 0.7 nM in test [4].
